In patent US10590120B2, “Pesticidal compositions and methods” (Dow AgroSciences LLC, priority 2016, dated 2020):

Tests used:
Assay type in all cases: in vivo
[1] = test system: Beet Armyworm (Spodoptera exigua, LAPHEG) ("BAW"); assay: Insecticidal test for beet armyworm, 128-well diet tray assay; settings: 168 h, second instar larvae, 50 μg/cm^2 on artificial diet, 25° C., five to seven days, percent mortality averaged over eight wells
Method: Insecticidal Test for Beet Armyworm (Spodoptera exigua, LAPHEG) (“BAW”)
(§1) Bioassays on beet armyworm (BAW; Spodoptera exigua: Lepidoptera) are conducted using a 128-well diet tray assay. One to five second instar BAW larvae are placed in each well (3 mL) of the diet tray that had been previously filled with 1 mL of artificial diet to which 50 μg/cm^2 of the test compound (dissolved in 50 μL of 90:10 acetone-water mixture) had been applied (to each of eight wells) and then allowed to dry. Trays are covered with a clear self-adhesive cover, vented to allow gas exchange, and held at 25° C., 14:10 light-dark for five to seven days. Percent mortality is recorded for the larvae in each well; activity in the eight wells is then averaged.

[2] = test system: Cabbage Looper (Trichloplusia ni, TRIPNI) ("CL"); assay: Insecticidal test for cabbage looper, 128-well diet tray assay; settings: Trichoplusia ni, 168 h; second instar larvae, 50 μg/cm^2 on artificial diet, 25° C., five to seven days, percent mortality averaged over eight wells
Method: Insecticidal Test for Cabbage Looper (Trichloplusia ni, TRIPNI) (“CL”)
as §1, with “cabbage looper (CL; Trichloplusia ni:” for “beet armyworm (BAW; Spodoptera exigua:”, “CL” for “BAW”

[3] = test system: Yellow Fever Mosquito (Aedes aegypti, AEDSAE) ("YFM"); assay: Insecticidal test for yellow fever mosquito, 96-well plate larval assay; settings: about 1 day-old larvae, 4000 ppm master solution diluted, room temperature, scored for mortality after 3 days
Method: Insecticidal Test for Yellow Fever Mosquito (Aedes aegypti, AEDSAE) (“YFM”)
Master plates containing 400 μg of a molecule dissolved in 100 μL of dimethyl sulfoxide (DMSO) (equivalent to a 4000 ppm solution) are used. A master plate of assembled molecules contains 15 μL per well. To this plate, 135 μL of a 90:10 water/acetone mixture is added to each well. A robot (Biomek® NXP Laboratory Automation Workstation) is programmed to dispense 15 μL aspirations from the master plate into an empty 96-well shallow plate (“daughter” plate). There are 6 reps (“daughter” plates) created per master. The created “daughter” plates are then immediately infested with YFM larvae.
The day before plates are to be treated, mosquito eggs are placed in Millipore water containing liver powder to begin hatching (4 g. into 400 mL). After the “daughter” plates are created using the robot, they are infested with 220 μL of the liver powder/larval mosquito mixture (about 1 day-old larvae). After plates are infested with mosquito larvae, a non-evaporative lid is used to cover the plate to reduce drying. Plates are held at room temperature for 3 days prior to grading. After 3 days, each well is observed and scored based on mortality.

Row | Structure (SMILES) | pest or weed control at 50 µg/cm2 [1] [%] | pest or weed control at 50 µg/cm2 [2] [%] | YFM % Control [3]
1 | Cc1ccc(OCC(F)(F)F)c(N2C(=O)CS/C2=N\C(=O)N/N=C/c2ccc(-c3ncn(-c4ccc(OC(F)(F)F)cc4)n3)cc2)c1 [Compound A6, N—((Z)-3-(5-Methyl-2-(2,2,2-trifluoroethoxy)phenyl)-4-oxothiazolidin-2-ylidene)-2-((E)-4-(1-(4-(trifluoromethoxy)phenyl)-1H-1,2,4-triazol-3-yl)benzylidene)hydrazine-1-carboxamide] | 50 to 100 | 50 to 100 | –
2 | Cc1ccc(C(C)C)c(N2C(=O)CS/C2=N\C(=O)N/N=C/c2ccc(-c3ncn(-c4ccc(OC(F)(F)F)cc4)n3)cc2)c1 [Compound A1, N—((Z)-3-(2-isopropyl-5-methylphenyl)-4-oxothiazolidin-2-ylidene)-2-((E)-4-(1-(4-(trifluoromethoxy)phenyl)-1H-1,2,4-triazol-3-yl)benzylidene)hydrazine-1-carboxamide] | 50 to 100 | 50 to 100 | –
3 | CCOc1ccc(C)cc1N1C(=O)CS/C1=N\C(=O)N/N=C/c1ccc(-c2ncn(-c3ccc(OC(F)(F)F)cc3)n2)cc1 [Compound A5, N—((Z)-3-(2-Ethoxy-5-methylphenyl)-4-oxothiazolidin-2-ylidene)-2-((E)-4-(1-(4-(trifluoromethoxy)phenyl)-1H-1,2,4-triazol-3-yl)benzylidene)hydrazine-1-carboxamide] | 50 to 100 | 50 to 100 | –
4 | CC(C)c1ccccc1N1C(=O)CS/C1=N\C(=O)N/N=C/c1ccc(-c2ncn(-c3ccc(OC(F)(F)F)cc3)n2)cc1 [Compound A2, N—((Z)-3-(2-Isopropylphenyl)-4-oxothiazolidin-2-ylidene)-2-((E)-4-(1-(4-(trifluoromethoxy)phenyl)-1H-1,2,4-triazol-3-yl)benzylidene)hydrazine-1-carboxamide] | 50 to 100 | 50 to 100 | A (80-100)
5 | Cc1ccc(Cl)c(N2C(=O)CS/C2=N\C(=O)N/N=C/c2ccc(-c3ncn(-c4ccc(OC(F)(F)F)cc4)n3)cc2)c1 [Compound A4, N—((Z)-3-(2-Chloro-5-methylphenyl)-4-oxothiazolidin-2-ylidene)-2-((E)-4-(1-(4-(trifluoromethoxy)phenyl)-1H-1,2,4-triazol-3-yl)benzylidene)hydrazine-1-carboxamide] | 50 to 100 | 50 to 100 | A (80-100)
6 | CCOc1ccccc1N1C(=O)CS/C1=N\C(=O)N/N=C/c1ccc(-c2ncn(-c3ccc(OC(F)(F)F)cc3)n2)cc1 [Compound A8, N—((Z)-3-(2-Ethoxyphenyl)-4-oxothiazolidin-2-ylidene)-2-((E)-4-(1-(4-(trifluoromethoxy)phenyl)-1H-1,2,4-triazol-3-yl)benzylidene)hydrazine-1-carboxamide] | 50 to 100 | 50 to 100 | –
7 | CCc1cccc(C)c1N1C(=O)CS/C1=N\C(=O)N/N=C/c1ccc(-c2ncn(-c3ccc(OC(F)(F)F)cc3)n2)cc1 [Compound A3, N—((Z)-3-(2-Ethyl-6-methylphenyl)-4-oxothiazolidin-2-ylidene)-2-((E)-4-(1-(4-(trifluoromethoxy)phenyl)-1H-1,2,4-triazol-3-yl)benzylidene)hydrazine-1-carboxamide] | 50 to 100 | 50 to 100 | –
8 | Cc1ccc(C(F)(F)F)c(N2C(=O)CS/C2=N\C(=O)N/N=C/c2ccc(-c3ncn(-c4ccc(OC(F)(F)F)cc4)n3)cc2)c1 [Compound A9, N—((Z)-3-(5-methyl-2-(trifluoromethyl)phenyl)-4-oxothiazolidin-2-ylidene)-2-((E)-4-(1-(4-(trifluoromethoxy)phenyl)-1H-1,2,4-triazol-3-yl)benzylidene)hydrazine-1-carboxamide] | 50 to 100 | 50 to 100 | –
9 | COc1ccc(N2C(=O)CS/C2=N\C(=O)N/N=C/c2ccc(-c3ncn(-c4ccc(OC(F)(F)F)cc4)n3)cc2)c(C)c1 [Compound A7, N—((Z)-3-(4-Methoxy-2-methylphenyl)-4-oxothiazolidin-2-ylidene)-2-((E)-4-(1-(4-(trifluoromethoxy)phenyl)-1H-1,2,4-triazol-3-yl)benzylidene)hydrazine-1-carboxamide] | 50 to 100 | 50 to 100 | A (80-100)
